In patent US20090218708A1, “Process for preparing concentrated aqueous micellar solutions” (Roche Palo Alto LLC, priority 2008, published 2009):

Key:
Type in all cases: physicochemical
[1] = Solubility of compound II in solvents
Description: Compound II (2 g) was slowly dispersed in 70% IPA (20 mL) and water (14 mL) was added. […] The IPA was distilled using rotary evaporator to achieve an aqueous solution containing ca. […] of II. The concentrated aqueous solution was spray dried using a Buchi B-290 spray drier and the operating parameters were adjusted as follows: […]

[2] = Stability study of micellar solid from spray drying of I (HPLC area %)
Description: (§1) A small amount of the solid (about 10 mg from example 1) was weighed into a weighing bottle and placed in a chamber with controlled relative humidity for 4 weeks and the percentage of water absorbed was calculated form the weight gain. The sample was also assayed by HPLC against an external standard on a Waters 2690 HPLC at 276 nm. The data was processed using Waters Millennium software version 3.2. The thermal stability also was determined at 60° C. and at 40° C./75% relative humidity. The purity of the sample was determined by assaying weighed aliquots by HPLC against an external standard.

[3] = Hygroscopicity: water absorbed in controlled relative humidity chamber (weight gain); settings: 4 weeks
Description: as §1

Area % ([2]; 25° C./60% RH (closed), 4 weeks) [%] | Area % ([2]; 25° C./60% RH (closed), To) [%] | Area % ([2]; 40° C./75% RH (closed), 4 weeks) [%] | Area % ([2]; 40° C./75% RH (closed), To) [%] | Area % ([2]; 40° C./75% RH (open), 5 weeks) [%] | Area % ([2]; 40° C./75% RH (open), To) [%] | Area % ([2]; 60° C. (closed), 5 weeks) [%] | Area % ([2]; 60° C. (closed), To) [%] | thermal stability ([2]; at 40 and 60° C. over the duration of the assay) | hygroscopicity [3] | Structure (SMILES) | solubility ([1]; aqueous with cosolvent or surfactant or cyclodextrin, in 70% IPA/H2O) [µg/mL] | solubility ([1]; in water) [µg/mL] | solubility ([1]; organic solvent or mixture, in IPA) [µg/mL]
– | – | – | – | – | – | – | – | – | – | CCC(=O)[N-]S(=O)(=O)c1ccc(NC(=O)Cc2ccc(Br)c(Oc3cc(Cl)cc(C#N)c3)c2F)c(Cl)c1.[Na+] [II] | ~47000 | ~4000 | ~80
99.88 | 99.88 | 99.91 | 99.88 | 99.26 | 99.81 | 99.72 | 99.81 | thermally stable | not hygroscopic | O=C(O)CCc1cc(C(=O)c2ccc(OC3CCCC3)cc2O)ccc1OCc1ccc2c(O)noc2c1 [I] | – | – | –
